# According to patent US4889634A, “Dialysate solution containing hydroxypropyl-beta-cyclodextrin and method of using same” (priority 1988, dated 1989):
# Columns and labels:
# laboratory animals = conditions: cited from earlier work
# normal rats = test: relative nephrotoxicity of HPBCD and BCD, intraperitoneal; type: in vivo, rat; conditions: for Mortality (died/total): BCD 0.75% w/v, HPBCD 1.5 and 3% w/v, 15 ml/100 g i.p.; for Rats died of kidney failure: in words
# Method: (§1) A first study was conducted to determine the relative nephrotoxicity of HPBCD and BCD. A control group using phosphate buffer solution was also included in the study.
# (§2) Three groups of normal rats were utilized in this study. […] Group I rats were given the vehicle solution of phosphate buffer saline (PBS). Group II rats were subdivided into three sub-groups. The first sub-group received a solution having a concentration of 1.5% HPBCD, the second sub-group received a solution having a concentration of 3% HPBCD while the third sub-group received a solution having a concentration of 6% HPBCD. Group III rats were given a solution having a concentration of 0.75% BCD.
# (§3) Animals from each group were sacrificed at 24 and 72 hours after injection of the peritoneal solution. The animals were sacrificed under general anesthesia and exsanguinated from the abdominal aorta. Plasma was separated and blood urea nitrogen and creatinine was measured and used as an index of renal toxicity of the solutions.
# [1] = as above; type: in vivo, rat; conditions: rat, in vivo, ip, BCD 0.75%
# Method: as §1, §2, §3
# [2] = 1 day, BCD 0.75%, HPBCD 1.5 and 3%
# [3] = 3 day, BCD 0.75%, HPBCD 1.5 and 3%
smiles,measurement,setting,value
"OC[C@H]1O[C@@H]2O[C@H]3[C@H](O)[C@@H](O)[C@@H](O[C@H]4[C@H](O)[C@@H](O)[C@@H](O[C@H]5[C@H](O)[C@@H](O)[C@@H](O[C@H]6[C@H](O)[C@@H](O)[C@@H](O[C@H]7[C@H](O)[C@@H](O)[C@@H](O[C@H]8[C@H](O)[C@@H](O)[C@@H](O[C@H]1[C@H](O)[C@H]2O)O[C@@H]8CO)O[C@@H]7CO)O[C@@H]6CO)O[C@@H]5CO)O[C@@H]4CO)O[C@@H]3CO [BCD, beta-cyclodextrin]","Renal toxicity (kidney enlargement, death)","laboratory animals; laboratory animals, reports in literature",enlargement of the kidneys and death due to kidney failure
same,Toxicity at high concentrations,"laboratory animals; rat, in vivo",toxic
same,Removal of intravenously administered toxins,"laboratory animals; rats, peritoneal dialysate, Perrin et al.",accelerate the removal of intravenously administered toxins in rats
same,Mortality (died/total),normal rats; 1 day,1/6
same,Kidney size,normal rats; [2],enlarged
same,Kidney weight,normal rats; [2],increased
same,BUN,"normal rats; 1 day, BCD 0.75%, HPBCD 1.5 and 3%, Table III",79.4 mg/dL
same,Mortality (died/total),normal rats; 3 day,8/9
same,Kidney size,normal rats; [3],enlarged
same,Kidney weight,normal rats; [3],increased
same,BUN,"normal rats; BCD 0.75%, 1d, n = 6",79.4 mg/dL
same,Final body weight Wt (f),"normal rats; BCD 0.75%, 1d, n = 6",218 g
same,Initial body weight Wt (i),"normal rats; BCD 0.75%, 1d, n = 6",223 g
same,Left kidney weight (Lt kd),"normal rats; BCD 0.75%, 1d, n = 6",1272 mg
same,Left kidney/body weight (Lt kd/wt),"normal rats; BCD 0.75%, 1d, n = 6",5.83 mg/g
same,Right kidney weight (Rt kd),"normal rats; BCD 0.75%, 1d, n = 6",1307 mg
same,Right kidney/body weight (Rt kd/wt),"normal rats; BCD 0.75%, 1d, n = 6",5.98 mg/g
same,Rats died of kidney failure,normal rats; BCD 1d Group,One rat
same,Rats died of kidney failure,normal rats; BCD 3d Group (nine rats),all but two of the nine rats
same,mortality at 24 h,"[1]; 1d, n = 6",16.7%
same,mortality at 72 h,"[1]; 3d, n = 9",77.8%
